The values below come from PMC2781551, “Antibody Complementarity-Determining Regions (CDRs): A Bridge between Adaptive and Innate Immunity” (PLoS ONE, 2009).

This assay has as its system TLR-4. As to the kind of experiment: TLR-4 protein Western blotting in PM. It is filed as cell-based, mouse (Balb/c). The conditions noted are these: PM 3×10^6/ml, 10 µg/ml, 1 and 3 h, Western blot, n = 5. As for the experimental part: After incubation, cells were washed and lysated with Mammalian protein extraction reagent (M-PER) in the presence of protease and phosphatase inhibitors (all from Pierce, Rockford, IL). Protein concentration was determined with a BCA protein Assay Reagent kit (Pierce). The lysates (30 µg of each sample) were separated by sodium dodecyl-sulfate-10% PAGE, transferred to a nitrocellulose membrane (Pierce) for 1 h at 100 V in a blotting system (Bio-Rad) for Western Blot analysis, and the membranes were incubated over-night with rabbit polyclonal Abs to phospho-Akt (pAkt; dilution 1/1000), phospho-IkBα (pIkBα; dilution 1/1000) (all from Cell Signalling Technology, Beverly, MA) and rabbit polyclonal Ab to TLR-4 (dilution 1/200) (Santa Cruz Biotechnology Inc.) in blocking buffer. […] Immunoreactive bands were visualized and quantified by Chemidoc Instrument (Bio-Rad). In particular, a quantitative analysis of the region of interest drawn around the outer edge of the band, was performed based on the guidelines for the use of the Chemidoc Instrument (Bio-Rad). […] All the parallelograms that form a band create one unique three-dimensional solid structure on which the volume is calculated. […]

With GQYGNLWFAY [VHCDR3], the “TLR-4 protein (normalized against actin)” value was “significant up-regulation”.
